Experimental data as given in ChEMBL document CHEMBL1149573, “Synthesis and reactivity of azobenzene-based bispropargyl sulfones: interesting comparison between cyclic and acyclic systems” (Bioorg Med Chem Lett, 2007).

System: Escherichia coli
Assay: Induction of pBR322 DNA cleavage after 2.5 hrs relative to (E)-1,2-bis(2-(4-(phenylsulfonyl)but-2-ynyloxy)phenyl)diazene

For `O=S(=O)(CC#CCOc1ccc2ccccc2c1)c1ccccc1`, the Activity was 15%.
